Test results reported in patent US10526316B2, “Quinoxaline and pyridopyrazine derivatives as PI3Kβ inhibitors” (Janssen Pharmaceutica NV, priority 2015, dated 2020).
Where two headings read alike, the source gives them in different places.

Experiments:
kinase enzymes [1] = target: T1, kinase enzymes (Homo sapiens, UniProt P42336); test: Enzyme binding assay (KINOMEscan, DiscoveRx), further kinases of Table A; conditions: PIK3Cα_h
T1 construct: purchased DiscoveRx Corporation, San Diego (contract service, KINOMEscan)
Method: (§1) Enzyme Binding Assays (KINOMEscan®)
(§2) Kinase enzyme binding affinities of compounds disclosed herein were determined using the KINOMEscan technology performed by DiscoveRx Corporation, San Diego, Calif., USA (www.kinomescan.com).

PI3Kβ = target: T2, PI3Kβ (Homo sapiens, UniProt P42338); test: Enzyme binding assay (KINOMEscan, DiscoveRx)
T2 construct: purchased DiscoveRx Corporation, San Diego (contract service, KINOMEscan)
Method: as §1
Kinase enzyme binding affinities of compounds disclosed herein were determined using the KINOMEscan technology performed by DiscoveRx Corporation, San Diego, Calif., USA (www.kinomescan.com). Table A reports the obtained Kd values (nM), with the Kd being the inhibitor binding constant: […]

[2] = tested on: Akt phosphorylated at Thr308 in PC-3 cells; test: Cellular assay: phosphorylation of Akt at Thr308 in PC-3 cells (MSD ELISA); assay type: cell-based; conditions: PC-3 cells, 60 min compound incubation, MSD ELISA, read-out: IC50 pAkt_Thr308
Method: (§3) Cellular activity of PI3KP inhibitors was determined by quantifying the phosphorylation of Akt in PC-3 cells. Akt phosphorylated at Ser473 and Thr308 were measured using an enzyme-linked immunosorbent assay (ELISA; Meso Scale Discovery (MSD), Gaithersburg. Md.) and specific primary antibodies from MSD.
(§4) On day 2, compound or DMSO (0.3%) was added and cells were further incubated for 60 min at 37° C. 5% CO2 in a total volume of 100 μl of medium.
(§5) The phosphoprotein assay was executed according to vendor instructions in the Phospho-Akt (Ser473) Assay Whole Cell Lysate Kit (MSD # K15100D-3) and the Phospho-Akt (Thr308) Assay Whole Cell Lysate Kit (MSD # K151DYD-3) using the lysis, blocking and wash buffer provided.
(§6) Briefly, at the end of the cell treatment period, media were removed by aspiration and adherent cells were lysed in 50 μl ice-cold lysis buffer. MSD plates are supplied pre-coated with capture antibodies for Phospho-Akt (Ser473 and Thr308). After blocking, lysates from tissue culture plates were added and plates were washed. Then, a solution containing the detection antibody (anti-total Akt conjugated with an electrochemiluminescent compound-MSD Sulfo-tag label) was added. The signals were detected using an MSD SECTOR Imager 6000 and are proportional to the phospho-Akt titres.
(§7) Data were processed. […] From these concentration-response curves, the IC50 values were calculated. Five concentrations were used for curve fitting.

PI3Kδ = target: T3, PI3Kδ (Homo sapiens, UniProt O00329); test: Enzyme binding assay (KINOMEscan, DiscoveRx); conditions: PIK3Cδ_h
T3 construct: purchased DiscoveRx Corporation, San Diego (contract service, KINOMEscan)
T3 sequence (O00329 1-1044): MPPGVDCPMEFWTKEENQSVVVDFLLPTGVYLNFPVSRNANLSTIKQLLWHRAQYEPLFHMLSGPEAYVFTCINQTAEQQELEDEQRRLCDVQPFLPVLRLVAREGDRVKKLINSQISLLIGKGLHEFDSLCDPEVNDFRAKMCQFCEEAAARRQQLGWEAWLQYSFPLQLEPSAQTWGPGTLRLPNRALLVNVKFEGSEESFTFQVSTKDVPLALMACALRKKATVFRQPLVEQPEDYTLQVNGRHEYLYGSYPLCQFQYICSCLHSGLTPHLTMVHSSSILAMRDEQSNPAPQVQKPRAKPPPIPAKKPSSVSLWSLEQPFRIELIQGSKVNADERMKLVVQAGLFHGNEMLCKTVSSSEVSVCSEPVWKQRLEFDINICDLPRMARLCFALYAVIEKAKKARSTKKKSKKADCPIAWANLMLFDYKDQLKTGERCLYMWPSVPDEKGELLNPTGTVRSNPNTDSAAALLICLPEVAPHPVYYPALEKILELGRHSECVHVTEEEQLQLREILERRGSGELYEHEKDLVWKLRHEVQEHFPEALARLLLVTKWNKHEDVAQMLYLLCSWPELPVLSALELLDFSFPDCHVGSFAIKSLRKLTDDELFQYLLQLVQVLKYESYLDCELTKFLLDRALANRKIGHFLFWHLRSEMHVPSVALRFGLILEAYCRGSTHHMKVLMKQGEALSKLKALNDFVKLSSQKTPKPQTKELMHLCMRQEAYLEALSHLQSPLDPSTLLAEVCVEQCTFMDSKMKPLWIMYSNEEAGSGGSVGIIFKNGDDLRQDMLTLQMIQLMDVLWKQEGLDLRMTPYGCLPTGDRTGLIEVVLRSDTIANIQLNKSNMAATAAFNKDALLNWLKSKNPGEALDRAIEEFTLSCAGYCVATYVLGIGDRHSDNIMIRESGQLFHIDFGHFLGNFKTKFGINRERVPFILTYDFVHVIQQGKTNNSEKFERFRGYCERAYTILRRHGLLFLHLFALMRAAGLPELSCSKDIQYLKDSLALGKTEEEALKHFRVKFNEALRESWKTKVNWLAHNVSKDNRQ
Method: as §1, §2

[3] = tested on: Akt phosphorylated at Ser473 in PC-3 cells; test: Cellular assay: phosphorylation of Akt at Ser473 in PC-3 cells (MSD ELISA); assay type: cell-based; conditions: PC-3 cells, 60 min compound incubation, MSD ELISA, read-out: IC50 pAkt_S473
Method: as §3, §4, §5, §6, §7

kinase enzymes [4] = target: T4, kinase enzymes (Homo sapiens, UniProt P48736); test: Enzyme binding assay (KINOMEscan, DiscoveRx), further kinases of Table A; conditions: PIK3Cγ_h
T4 construct: purchased DiscoveRx Corporation, San Diego (contract service, KINOMEscan)
Method: as §1, §2

kinase enzymes [5] = target: T5, kinase enzymes (Homo sapiens, UniProt P42345); test: as above; conditions: MTOR_h
T5 construct: purchased DiscoveRx Corporation, San Diego (contract service, KINOMEscan)
Method: as §1, §2

[6] = PIK3Cβ_h, read-out: Kd PIK3Cβ_h

T1 sequence (P42336 whole entry): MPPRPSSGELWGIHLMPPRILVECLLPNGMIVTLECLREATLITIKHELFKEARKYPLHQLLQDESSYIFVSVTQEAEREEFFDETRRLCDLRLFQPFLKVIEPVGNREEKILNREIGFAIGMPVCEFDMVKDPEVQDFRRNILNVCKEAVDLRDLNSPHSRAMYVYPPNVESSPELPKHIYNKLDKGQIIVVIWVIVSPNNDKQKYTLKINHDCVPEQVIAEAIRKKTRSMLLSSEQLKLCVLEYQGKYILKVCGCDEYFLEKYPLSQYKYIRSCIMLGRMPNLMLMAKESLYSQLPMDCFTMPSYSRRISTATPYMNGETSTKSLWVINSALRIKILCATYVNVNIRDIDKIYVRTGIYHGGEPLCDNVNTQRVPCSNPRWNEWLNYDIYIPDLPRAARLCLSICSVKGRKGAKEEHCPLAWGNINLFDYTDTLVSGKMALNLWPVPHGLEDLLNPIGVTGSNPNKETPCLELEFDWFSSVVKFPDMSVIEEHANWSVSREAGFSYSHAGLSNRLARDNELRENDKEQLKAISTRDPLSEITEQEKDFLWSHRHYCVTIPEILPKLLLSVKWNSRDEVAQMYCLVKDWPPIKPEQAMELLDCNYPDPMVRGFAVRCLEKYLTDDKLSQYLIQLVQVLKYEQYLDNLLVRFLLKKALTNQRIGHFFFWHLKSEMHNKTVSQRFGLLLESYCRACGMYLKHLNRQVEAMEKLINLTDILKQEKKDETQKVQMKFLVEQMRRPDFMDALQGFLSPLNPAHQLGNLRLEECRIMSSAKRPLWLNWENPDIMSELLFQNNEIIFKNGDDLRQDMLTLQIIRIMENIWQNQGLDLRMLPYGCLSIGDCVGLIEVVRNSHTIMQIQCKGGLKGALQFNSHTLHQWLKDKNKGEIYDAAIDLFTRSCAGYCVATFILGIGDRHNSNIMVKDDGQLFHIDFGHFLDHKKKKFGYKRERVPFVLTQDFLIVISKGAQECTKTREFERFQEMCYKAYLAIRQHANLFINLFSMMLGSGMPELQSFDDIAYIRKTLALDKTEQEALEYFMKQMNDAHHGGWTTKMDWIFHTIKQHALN
T2 sequence (P42338 whole entry): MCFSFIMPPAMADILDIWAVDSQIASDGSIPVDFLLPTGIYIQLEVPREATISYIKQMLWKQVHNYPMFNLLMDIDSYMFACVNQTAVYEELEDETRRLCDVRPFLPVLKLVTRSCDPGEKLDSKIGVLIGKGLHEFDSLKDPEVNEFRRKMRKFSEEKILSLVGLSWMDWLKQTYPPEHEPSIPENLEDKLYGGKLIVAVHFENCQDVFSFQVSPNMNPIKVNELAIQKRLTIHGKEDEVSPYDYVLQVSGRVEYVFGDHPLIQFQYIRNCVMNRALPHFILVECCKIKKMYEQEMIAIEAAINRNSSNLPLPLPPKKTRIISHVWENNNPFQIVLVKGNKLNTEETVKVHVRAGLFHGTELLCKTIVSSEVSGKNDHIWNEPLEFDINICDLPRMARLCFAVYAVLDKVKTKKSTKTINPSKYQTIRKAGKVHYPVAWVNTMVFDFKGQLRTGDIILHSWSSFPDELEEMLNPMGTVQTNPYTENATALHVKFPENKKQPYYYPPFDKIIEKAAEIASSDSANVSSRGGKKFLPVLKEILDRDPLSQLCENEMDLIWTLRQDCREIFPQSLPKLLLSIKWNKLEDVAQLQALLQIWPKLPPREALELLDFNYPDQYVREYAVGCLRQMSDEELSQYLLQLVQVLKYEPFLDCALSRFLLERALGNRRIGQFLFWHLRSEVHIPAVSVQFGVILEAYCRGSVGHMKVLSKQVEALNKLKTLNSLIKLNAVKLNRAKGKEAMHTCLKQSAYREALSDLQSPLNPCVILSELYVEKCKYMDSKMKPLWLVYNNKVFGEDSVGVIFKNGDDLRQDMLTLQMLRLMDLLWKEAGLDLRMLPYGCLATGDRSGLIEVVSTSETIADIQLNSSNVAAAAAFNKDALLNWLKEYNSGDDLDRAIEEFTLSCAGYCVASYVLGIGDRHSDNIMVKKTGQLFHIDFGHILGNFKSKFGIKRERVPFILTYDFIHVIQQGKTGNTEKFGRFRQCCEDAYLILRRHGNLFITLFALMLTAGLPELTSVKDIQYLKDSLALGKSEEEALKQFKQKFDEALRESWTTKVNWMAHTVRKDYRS
T4 sequence (P48736 whole entry): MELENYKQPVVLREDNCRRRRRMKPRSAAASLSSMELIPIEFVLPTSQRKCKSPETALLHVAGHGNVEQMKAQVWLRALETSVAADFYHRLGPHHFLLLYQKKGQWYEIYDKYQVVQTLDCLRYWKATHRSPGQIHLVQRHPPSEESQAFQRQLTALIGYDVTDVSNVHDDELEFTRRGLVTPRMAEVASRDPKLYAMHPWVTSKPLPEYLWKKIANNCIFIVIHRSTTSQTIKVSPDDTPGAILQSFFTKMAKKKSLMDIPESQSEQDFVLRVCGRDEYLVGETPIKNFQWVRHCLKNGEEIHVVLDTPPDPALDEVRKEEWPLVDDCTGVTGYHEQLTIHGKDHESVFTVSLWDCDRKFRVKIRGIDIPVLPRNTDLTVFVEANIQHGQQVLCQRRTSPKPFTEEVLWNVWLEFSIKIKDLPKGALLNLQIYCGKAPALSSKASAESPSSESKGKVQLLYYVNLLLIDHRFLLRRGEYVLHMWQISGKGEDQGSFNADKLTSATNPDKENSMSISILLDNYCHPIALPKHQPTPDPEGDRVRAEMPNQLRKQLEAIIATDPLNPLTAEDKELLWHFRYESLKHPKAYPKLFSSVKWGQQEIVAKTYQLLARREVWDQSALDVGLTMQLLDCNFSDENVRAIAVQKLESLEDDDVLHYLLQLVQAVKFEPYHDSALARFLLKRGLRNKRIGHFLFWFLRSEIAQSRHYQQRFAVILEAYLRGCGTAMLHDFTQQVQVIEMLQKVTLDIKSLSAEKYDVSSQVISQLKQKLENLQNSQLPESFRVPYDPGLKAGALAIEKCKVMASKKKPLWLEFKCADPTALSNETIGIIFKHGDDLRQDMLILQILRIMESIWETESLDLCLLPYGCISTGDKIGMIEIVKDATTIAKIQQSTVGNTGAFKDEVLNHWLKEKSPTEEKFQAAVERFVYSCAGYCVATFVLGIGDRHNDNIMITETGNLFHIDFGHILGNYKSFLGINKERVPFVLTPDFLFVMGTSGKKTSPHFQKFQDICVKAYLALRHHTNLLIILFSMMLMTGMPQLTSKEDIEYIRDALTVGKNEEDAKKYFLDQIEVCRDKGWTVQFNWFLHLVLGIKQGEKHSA

| Kd (kinase enzymes [1]) | Kd (PI3Kβ; [6]) | IC50 ([2]; Homo sapiens, PC-3, 1 h) | Kd (PI3Kδ) | IC50 ([3]; Homo sapiens, PC-3, 1 h) | Kd (kinase enzymes [4]) | Kd (kinase enzymes [5]) | SMILES | Kd (PI3Kβ; Kd PIK3Cβ_h) | IC50 [2] | IC50 [3] | Kd (PI3Kβ; read-out: Kd PIK3Cβ_h) |
| --- | --- | --- | --- | --- | --- | --- | --- | --- | --- | --- | --- |
|  |  | 44 nM |  | 49 nM |  |  | C[C@@H](Nc1cccc(F)c1)c1cc(C(=O)NCCO)cc2ncc(N3CCOCC3)nc12 [Compound 117] |  |  |  |  |
|  | 52 nM |  |  |  |  | > 30200 nM | COC(=O)c1cc(C(C)Nc2cc(F)cc(Cl)c2)c2nc(N3CCOCC3)cnc2c1 (stereo not drawn) [Compound 264] |  |  | > 513 nM |  |
| 550 nM | 407 nM |  | 2820 nM |  | 513 nM | 10200 nM | CN(Cc1cc(F)cc(F)c1)c1cc(C(=O)O)cc2ncc(N3CCOCC3)nc12 [Compound 291] |  |  |  |  |
| 2510 nM | 21 nM |  | 1700 nM |  | 2140 nM | > 30200 nM | O=C(c1cc(NCc2cc(F)cc(F)c2)c2nc(N3CCOCC3)cnc2c1)N1CCCNCC1 [Compound 351] |  |  |  |  |
| 9120 nM | 1050 nM |  | 7240 nM |  |  | 19100 nM | CNCCNC(=O)c1cc(C(C)Oc2ccc(Cl)c(F)c2)c2nc(N3CCOCC3)cnc2c1 (stereo not drawn) [Compound 380a] |  |  |  |  |

More lines, now with the values behind:

| SMILES | Kd (kinase enzymes [1]) | Kd (PI3Kβ; [6]) | IC50 ([2]; Homo sapiens, PC-3, 1 h) | Kd (PI3Kδ) | IC50 ([3]; Homo sapiens, PC-3, 1 h) | Kd (kinase enzymes [4]) | Kd (kinase enzymes [5]) | Kd (PI3Kβ; Kd PIK3Cβ_h) | IC50 [2] | IC50 [3] | Kd (PI3Kβ; read-out: Kd PIK3Cβ_h) |
| --- | --- | --- | --- | --- | --- | --- | --- | --- | --- | --- | --- |
| CN(C)C(=O)c1cc([C@@H]2CCCN2c2cc(F)cc(F)c2)c2nc(N3CCOCC3)cnc2c1 [Compound 2] | 12300 nM | 1090 nM | > 513 nM | 16400 nM | > 513 nM |  |  |  |  |  |  |
| C[C@@H](Nc1cc(F)cc(F)c1)c1cc(C(=O)NCCN(C)C)cc2ncc(N3CCOCC3)nc12 [Compound 184a] | 806 nM |  |  |  |  | 1480 nM | 21900 nM | 0.1 nM | 2 nM | 3 nM |  |
| C[C@@H](Nc1cc(F)cc(F)c1)c1cc(C(=O)NCCN(C)C)cc2ncc(N3CCOCC3)nc12 [Compound 184b] | 589 nM |  |  |  |  | 1100 nM | 20000 nM |  | 2 nM | 3 nM | 0.1 nM |
| C[C@@H](Nc1cc(F)cc(F)c1)c1cc(C(=O)NCCN(C)C)cc2ncc(N3CCOCC3)nc12 [Compound 184c] | 829 nM |  |  |  |  | 1270 nM | 24000 nM |  | 2 nM | 4 nM | 0.1 nM |
| CN[C@H]1CCN(C(=O)c2cc(C(C)Nc3cc(F)c(F)c(F)c3)c3nc(N4CCOCC4)cnc3c2)C1 (stereo partly drawn) [Compound 297] | 1860 nM | 0.3 nM | 20 nM | 110 nM |  | 1950 nM | > 30200 nM |  |  |  |  |
| CC(C)NCCNC(=O)c1cc(NCc2cc(F)cc(F)c2)c2nc(N3CCOCC3)cnc2c1 [Compound 342] | 3800 nM | 9 nM |  | 1000 nM |  | 26900 nM | 16600 nM |  |  |  |  |
| Cc1ccc(F)cc1CNc1cc(C(=O)NCCO)cc2ncc(N3CCOCC3)nc12 [Compound 343] | 2190 nM | 22 nM | 178 nM |  | 389 nM |  | > 10000 nM |  |  |  |  |
| CC(C)NCCN(C)C(=O)c1cc(N(C)Cc2cc(F)cc(F)c2)c2nc(N3CCOCC3)cnc2c1 [Compound 390] | 16600 nM | 78 nM |  | 3240 nM |  | 22400 nM | > 30200 nM |  |  |  |  |
